Results from patent US9487530B2, “Transient protection of normal cells during chemotherapy” (G1 Therapeutics, Inc., priority 2013, dated 2016).

Experiments:
[1] = tested on: WM2664 cells (CDK4/6-dependent cell line); assay: Cell cycle arrest (propidium iodide), WM2664; type: cell-based; details: 300 nM for 24 hours
From the text: (§1) To test the ability of Cdk4/6 inhibitors to induce a clean G1-arrest, a cell based screening method was used consisting of two Cdk4/6-dependent cell lines (tHS68 and WM2664; Rb-positive) and one Cdk4/6-independent (A2058; Rb-negative) cell line. […] At the conclusion of the experiment, cells were harvested, fixed, and stained with propidium iodide (a DNA intercalator), which fluoresces strongly red (emission maximum 637 nm) when excited by 488 nm light. Samples were run on Dako Cyan flow cytometer and >10,000 events were collected for each sample. Data were analyzed using FlowJo 2.2 software developed by TreeStar, Inc.

[2] = tested on: A2058 cells (CDK4/6-independent cell line); assay: Cell cycle arrest (propidium iodide), A2058; type: cell-based; details: 300 nM for 24 hours
From the text: as §1

[3] = tested on: telomerized human diploid fibroblasts (tHDFs; tHS68); assay: Protection from chemotherapy-induced cell death, DNA damage and caspase activation in fibroblasts; type: cell-based
Experimental: Cell survival was determined by Cell TiterGlo assay per manufacturer's recommendations. For both γ-H2AX and caspase 3/7 assays, cells were plated and allowed to become adherent for 24 hours. […] For γ-H2AX, cells were harvested for analysis 8 hours after chemotherapy exposure. For the γ-H2AX assay, cells were fixed, permeabilized, and stained with anti-γ-H2AX as per the γ-H2AX Flow Kit (Millipore) and quantitated by flow cytometry. Data was analyzed using FlowJo 2.2 software developed by TreeStar, Inc. For the in vitro caspase 3/7 assay, cells were harvested 24 hours post chemotherapy treatment. Caspase 3/7 activation was measured using the Caspase-Glo® 3/7 Assay System (Promega) per manufacturer's recommendations.

[4] = tested on: whole bone marrow, HSPC and differentiated hematopoietic cells; assay: EdU incorporation in mouse hematopoietic cell lineages; type: in vivo; details: 150 mg/kg oral gavage; for inhibition at 150 mg/kg: Mus musculus
Experimental: Ten-hours later, all mice were given a single i.p. injection of 100 mcg EdU (5-ethynyl-2′-deoxyuridine) to label cells in S-phase of the cell cycle. All treated mice were euthanized 2 hours after EdU injection, bone marrow cells were harvested and processed for flow cytometric analysis of EdU-incorporation (FIG. 13).

[5] = tested on: human renal proximal tubule cells; assay: Cell cycle of renal proximal tubule cells with etoposide or cisplatin; type: cell-based; details: 10-1000 nM in combination with etoposide or cisplatin
Experimental: The ability of Cdk4/6 inhibitors to protect human renal proximal tubule cells from chemotherapy induced DNA damage was analyzed using etoposide and cisplatin. […] At the conclusion of the experiment, cells were harvested, fixed, and stained with propidium iodide (a DNA intercalator), which fluoresces strongly red (emission maximum 637 nm) when excited by 488 nm light. Samples were run on Dako Cyan flow cytometer.

[6] = tested on: human renal proximal tubule cells; assay: gamma-H2AX and caspase 3/7 in renal proximal tubule cells with cisplatin; type: cell-based
Experimental: Normal renal proximal tubule epithelial cells were obtained from American Type Culture Collection (ATCC, Manassas, Va.). Cells were grown in an incubator at 37° C. in a humidified atmosphere of 5% CO2 in Renal Epithelial Cell Basal Media (ATCC) supplemented with Renal Epithelial Cell Growth Kit (ATCC) in 37° C. humidified incubator. […] For the γ-H2AX assay, cells were fixed, permeabilized, and stained with anti-γ-H2AX as per the γ-H2AX Flow Kit (Millipore) and quantitated by flow cytometry. Data was analyzed using FlowJo 2.2 software developed by TreeStar, Inc. Caspase 3/7 activation was measured using the Caspase-Glo 3/7 Assay System (Promega, Madison, Wis.) by following the manufacturer's instructions.

## CN1CCN(c2ccc(Nc3ncc4cc5n(c4n3)C3(CCCCC3)CNC5=O)nc2)CC1 [T, 2′-((5-(4-methylpiperazin-1-yl)pyridin-2-yl)amino)-7′,8′-dihydro-6′H-spiro[cyclohexane-1,9′-pyrazino[1′,2′:1,5]pyrrolo[2,3-d]pyrimidin]-6′-one]
[1]
  S-phase peak: causes a loss of the S-phase peak
[2]
  S-phase peak: does not cause a loss of the S-phase peak
[3]; in the presence of etoposide (5 uM) or carboplatin (100 uM)
  cell survival (Cell TiterGlo): dose dependent cell survival
[3]; prior to carboplatin, doxorubicin, etoposide, camptothecin or paclitaxel
  DNA damage as measured by gamma-H2AX formation: attenuated DNA damage
[3]; prior to carboplatin, doxorubicin, etoposide, camptothecin, and paclitaxel
  caspase 3/7 activation: robust decrease in caspase 3/7 activation in a dose-dependent manner
[4]; B cell progenitors
  reduction in EdU+ cell frequencies: > 80%
[4]; CMP, GMP, MEP and CLP
  reduction in EdU+ cell frequency: 76-92%
[4]; Mac1+G1+ myeloid cells
  reduction in EdU+ cell frequency: 46%
[4]; T cell progenitors
  reduction in EdU+ cell frequencies: > 99%
[4]; Ter119+ erythroid cells
  reduction in EdU+ cell frequency: 58%
[4]; unfractionated whole bone marrow cells
  reduction of EdU+ cell frequency: ~70%
[4]; Hematopoietic stem cell, hematopoietic stem cells (HSC)
  inhibition at 150 mg/kg: 74%
[4]; multipotent progenitors (MPP)
  inhibition at 150 mg/kg: 90%
[5]
  cell cycle distribution: decrease in the percentage of S-phase cells, with a corresponding rise in the percentage of cells in the G0-G1 phase
[6]; cisplatin 25 uM, 50 uM, or 100 uM
  caspase 3/7 activation: dose-dependent reduction in caspase 3/7 activation
[6]; in combination with 25 uM cisplatin
  DNA damage as measured by gamma-H2AX formation: attenuated DNA damage
